Eight compounds from PubChem BioAssay (NCI) can be followed below.

SMILES strings stand for the structures. “And” between values parts separate entries of the source, which are not always exact repeats. Identical values can stand only once.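 Five concentrations, 48 hours, 96-well plates. GI50 marks 50% less growth. TGI: concentration producing complete growth inhibition.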

Among the test systems are CAKI-1 renal; DU-145 prostate; EKVX NSCLC; HOP-92 NSCLC; LOX IMVI melanoma; M14 melanoma; MCF7 breast; SK-MEL-28 melanoma; SNB-19 CNS; T-47D breast.
Holding throughout (assay): NCI anticancer screen, dose series, 48 h

As for `CC1(C)CC[C@]2(C(=O)O)CC[C@]3(C)C(=CC[C@@H]4[C@@]5(C)C/C(=C/c6cccnc6)[C@H](O)C(C)(C)[C@@H]5CC[C@]43C)[C@@H]2C1`, the GI50 is 10.2 µM in the assay on CAKI-1 renal; 10.7 µM with DU-145 prostate; 6.02 µM in the assay on EKVX NSCLC; 2.22 µM in the assay on HOP-92 NSCLC; 8.28 µM in the assay with LOX IMVI melanoma; 16.7 µM in the assay with M14 melanoma. Also, the GI50 was 5.25 µM in the assay with MCF7 breast, 11.1 µM in the assay with SK-MEL-28 melanoma, 5.55 µM in the assay on SNB-19 CNS and 9.89 µM with T-47D breast. Besides, the TGI with CAKI-1 renal is more than 100 µM; in the assay on DU-145 prostate it was more than 100 µM; in the assay on EKVX NSCLC, 56.6 µM; in the assay with HOP-92 NSCLC, 10.1 µM; in the assay with LOX IMVI melanoma it was 24.2 µM; in the assay with M14 melanoma, 51.3 µM. Besides, the TGI in the assay with MCF7 breast was more than 100 µM; in the assay on SK-MEL-28 melanoma, 35 µM; in the assay on SNB-19 CNS it was more than 100 µM; with T-47D breast, more than 100 µM.

Turning to `c1c[nH]c(CN2CCN(Cc3ncc[nH]3)CC2)n1`, the TGI with CAKI-1 renal, in the assay with DU-145 prostate, in the assay with EKVX NSCLC, with HOP-92 NSCLC, with LOX IMVI melanoma and in the assay on M14 melanoma was more than 100 µM throughout. The TGI in the assay with MCF7 breast, in the assay with SK-MEL-28 melanoma, in the assay with SNB-19 CNS and in the assay on T-47D breast was more than 100 µM in each case.

In the case of `C=C(C)[C@@H]1CC[C@]2(C(=O)OC)CC[C@]3(C)[C@H](CC[C@@H]4[C@@]5(C)CC/C(=N\OCCC(=NCCC#N)NOCCC#N)C(C)(C)[C@@H]5CC[C@]43C)[C@@H]12`, the GI50 was 10.2 µM with CAKI-1 renal; 13.4 µM with DU-145 prostate; 4.77 µM in the assay with EKVX NSCLC; 6.9 µM in the assay on HOP-92 NSCLC; 4.32 µM with LOX IMVI melanoma; 11.9 µM with M14 melanoma. In addition, the GI50 was 3.68 µM in the assay on MCF7 breast, 17.1 µM in the assay with SK-MEL-28 melanoma, 12.6 µM with SNB-19 CNS and 3.47 µM in the assay with T-47D breast. Also, the TGI with CAKI-1 renal is more than 50 µM; with DU-145 prostate, more than 50 µM; with EKVX NSCLC it was more than 50 µM; in the assay on HOP-92 NSCLC it was 35 µM; with LOX IMVI melanoma, 10.4 µM; with M14 melanoma it was more than 50 µM. Further, the TGI with MCF7 breast, with SK-MEL-28 melanoma, in the assay with SNB-19 CNS and in the assay on T-47D breast was more than 50 µM each time.

With `CC(=O)O[C@@H]1[C@H]2O[C@H]2[C@H]2O[C@@]2(COC(=O)c2ccccc2)[C@H]1OC(C)=O`, the TGI in the assay with CAKI-1 renal, in the assay on DU-145 prostate, with EKVX NSCLC, in the assay with HOP-92 NSCLC, in the assay with LOX IMVI melanoma and with M14 melanoma was more than 100 µM throughout. Also, the TGI with MCF7 breast, in the assay on SK-MEL-28 melanoma, in the assay on SNB-19 CNS and with T-47D breast was more than 100 µM throughout.

As to `COc1ncc(-c2ccc3nc(N)n(-c4ccccc4C(F)(F)F)c(=O)c3c2)cc1S(=O)(=O)Nc1ccc(F)cc1F`, the GI50 in the assay on CAKI-1 renal was 0.122 µM; in the assay with DU-145 prostate, 0.897 µM; in the assay with EKVX NSCLC it was 0.86 µM; in the assay on HOP-92 NSCLC, 0.432 µM; in the assay on LOX IMVI melanoma, 0.224 µM; with M14 melanoma, 1.23 µM. In addition, the GI50 in the assay with MCF7 breast was 2.05 µM; in the assay on SK-MEL-28 melanoma it was 3.63 µM; with SNB-19 CNS it was 7.87 µM; with T-47D breast, 0.425 µM. Besides, the TGI was more than 100 µM with CAKI-1 renal; more than 100 µM in the assay with DU-145 prostate; more than 100 µM in the assay on EKVX NSCLC; 94.5 µM with HOP-92 NSCLC; 0.761 µM in the assay with LOX IMVI melanoma; 14.8 µM with M14 melanoma. In addition, the TGI was 29.4 µM with MCF7 breast, 14.1 µM with SK-MEL-28 melanoma, 45.8 µM in the assay with SNB-19 CNS and more than 100 µM in the assay with T-47D breast.

For the compound `O=C(/C=C/c1ccccc1)c1ccccn1`, the TGI in the assay on CAKI-1 renal was 33.2 µM and 64.4 µM; with DU-145 prostate, 24.8 µM and 40.5 µM; with EKVX NSCLC, 45.5 µM and 41 µM; in the assay with HOP-92 NSCLC it was 53 µM; in the assay with LOX IMVI melanoma, 23.9 µM and 34.8 µM; with M14 melanoma it was 29.9 µM. Also, the TGI with MCF7 breast was 37.1 µM; in the assay with SK-MEL-28 melanoma, 40.7 µM and 81.5 µM; in the assay on SNB-19 CNS, 31 µM and > 100 µM; in the assay with T-47D breast it was 31.2 µM and 62.7 µM. Further, the GI50 in the assay on SNB-19 CNS is 15.1 µM and 31.9 µM.

`CCn1nc(C#Cc2c(C)ccc3c(Nc4ccc(Cl)cc4)nccc23)c2c(N)ncnc21`: the GI50 with CAKI-1 renal was 4.78 µM; in the assay on DU-145 prostate, 5.74 µM; in the assay on EKVX NSCLC, 7.4 µM; in the assay on HOP-92 NSCLC, 1.79 µM; with LOX IMVI melanoma it was 1.81 µM; in the assay with M14 melanoma, 2.89 µM. Also, the GI50 with MCF7 breast was 2.49 µM; in the assay on SK-MEL-28 melanoma it was 3.36 µM; with SNB-19 CNS, 4.93 µM; with T-47D breast it was 5.48 µM. In addition, the TGI with CAKI-1 renal is more than 100 µM; in the assay on DU-145 prostate, more than 100 µM; in the assay on EKVX NSCLC it was more than 100 µM; in the assay with HOP-92 NSCLC it was 9.06 µM; in the assay with LOX IMVI melanoma, more than 100 µM; in the assay with M14 melanoma it was more than 100 µM. The TGI with MCF7 breast, in the assay on SK-MEL-28 melanoma, in the assay with SNB-19 CNS and in the assay on T-47D breast was more than 100 µM throughout.

Take `COC(=O)[C@@H](C)C[C@H](Cc1ccccc1)NC(=O)c1nc([C@@H](C[C@H](C(C)C)N(C)C(=O)[C@@H](NC(=O)[C@H]2CC(=O)CCN2C)C(C)C)OC(C)=O)sc1C(C)C`: the GI50 with CAKI-1 renal was 0.499 µM; in the assay with DU-145 prostate, 0.115 µM; with EKVX NSCLC it was 0.953 µM; in the assay on HOP-92 NSCLC, 0.119 µM; in the assay on LOX IMVI melanoma it was 0.11 µM; in the assay with M14 melanoma it was 0.217 µM. For the same compound, the GI50 in the assay with MCF7 breast was 0.0427 µM; in the assay on SK-MEL-28 melanoma, 0.524 µM; with SNB-19 CNS it was 0.183 µM; in the assay with T-47D breast, 0.08 µM. Besides, the TGI in the assay with CAKI-1 renal is more than 16.7 µM; with DU-145 prostate, more than 5.55 µM; in the assay on EKVX NSCLC it was more than 16.7 µM; with HOP-92 NSCLC, more than 16.7 µM; in the assay with LOX IMVI melanoma, more than 16.7 µM; in the assay with M14 melanoma it was 1.18 µM. Also, the TGI in the assay on MCF7 breast, in the assay on SK-MEL-28 melanoma, in the assay on SNB-19 CNS and in the assay on T-47D breast was more than 16.7 µM in each case.
